The source made the active and inactive calls. How the calls were made is not given here.
Test system: CCRIS mutagenicity, Ames/micronucleus/aberration tests
Test: CCRIS mutagenicity studies

In the case of `Nc1ccc(N)cc1`, the mutagenic call (Test System: AMES SALMONELLA TYPHIMURIUM, Strain/Indicator: TA2638, Metabolic Activation: NONE, Method: STANDARD PLATE) was “inactive; negative”, the mutagenic call (Test System: AMES SALMONELLA TYPHIMURIUM, Strain/Indicator: YG1024, Metabolic Activation: PLANT (PERSEA AMERICANA) S-117, Method: STANDARD PLATE) was “inactive; negative” and the mutagenic call (Test System: AMES SALMONELLA TYPHIMURIUM, Strain/Indicator: YG1024, Metabolic Activation: PLANT (ZEA MAYS) S-9, Method: STANDARD PLATE) was “inactive; negative”. The mutagenic call (Test System: AMES SALMONELLA TYPHIMURIUM, Strain/Indicator: YG1029, Metabolic Activation: PLANT (PERSEA AMERICANA) S-117, Method: STANDARD PLATE) was “inactive; negative”, the mutagenic call (Test System: AMES SALMONELLA TYPHIMURIUM, Strain/Indicator: YG1029, Metabolic Activation: PLANT (ZEA MAYS) S-9, Method: STANDARD PLATE) was “inactive; negative” and the mutagenic call (Test System: Ames Salmonella typhimurium, Strain/Indicator: TA98, Metabolic Activation: None, Method: Standard plate) was “inactive; negative”. For the same compound, the mutagenic call (Test System: Ames Salmonella typhimurium, Strain/Indicator: TA98, Metabolic Activation: Rat, Liver, S-9, Aroclor 1254 (10%), Method: Preincubation) was “active; positive”, the mutagenic call (Test System: Ames Salmonella typhimurium, Strain/Indicator: TA98, Metabolic Activation: Rat, Liver, S-9, Aroclor 1254 (10%), Method: Standard plate) was “active; positive” and the mutagenic call (Test System: Ames Salmonella typhimurium, Strain/Indicator: TA100, Metabolic Activation: None, Method: Preincubation) was “inactive; negative”. The mutagenic call (Test System: Ames Salmonella typhimurium, Strain/Indicator: TA100, Metabolic Activation: None, Method: Standard plate) was “inactive; negative”, the mutagenic call (Test System: Ames Salmonella typhimurium, Strain/Indicator: TA100, Metabolic Activation: Rat, Liver, S-9, Aroclor 1254 (10%), Method: Preincubation) was “inactive; negative” and the mutagenic call (Test System: Ames Salmonella typhimurium, Strain/Indicator: TA100, Metabolic Activation: Rat, Liver, S-9, Aroclor 1254 (10%), Method: Standard plate) was “inactive; negative”. The mutagenic call (Test System: Ames Salmonella typhimurium, Strain/Indicator: TA102, Metabolic Activation: None, Method: Preincubation) was “inactive; negative”, the mutagenic call (Test System: Ames Salmonella typhimurium, Strain/Indicator: TA102, Metabolic Activation: None, Method: Standard plate) was “inactive; negative” and the mutagenic call (Test System: Ames Salmonella typhimurium, Strain/Indicator: TA102, Metabolic Activation: Rat, Liver, S9, Aroclor 1254, Method: Preincubation) was “inactive; negative”. The mutagenic call (Test System: Ames Salmonella typhimurium, Strain/Indicator: TA102, Metabolic Activation: Rat, Liver, S-9, Aroclor 1254 (10%), Method: Preincubation) was “inactive; negative”, the mutagenic call (Test System: Ames Salmonella typhimurium, Strain/Indicator: TA102, Metabolic Activation: Rat, Liver, S-9, Aroclor 1254 (10%), Method: Standard plate) was “inactive; negative” and the mutagenic call (Test System: Ames Salmonella typhimurium, Strain/Indicator: TA104, Metabolic Activation: None, Method: Preincubation) was “inactive; negative”. For the same compound, the mutagenic call (Test System: Ames Salmonella typhimurium, Strain/Indicator: TA104, Metabolic Activation: Rat, Liver, S9, Aroclor 1254, Method: Preincubation) was “inactive; negative”, the mutagenic call (Test System: Ames Salmonella typhimurium, Strain/Indicator: TA1535, Metabolic Activation: None, Method: Preincubation) was “inactive; negative” and the mutagenic call (Test System: Ames Salmonella typhimurium, Strain/Indicator: TA1535, Metabolic Activation: None, Method: Standard plate) was “inactive; negative”. For the same compound, the mutagenic call (Test System: Ames Salmonella typhimurium, Strain/Indicator: TA1535, Metabolic Activation: Rat, Liver, S-9, Aroclor 1254 (10%), Method: Preincubation) was “inactive; negative”, the mutagenic call (Test System: Ames Salmonella typhimurium, Strain/Indicator: TA1535, Metabolic Activation: Rat, Liver, S-9, Aroclor 1254 (10%), Method: Standard plate) was “inactive; negative” and the mutagenic call (Test System: Ames Salmonella typhimurium, Strain/Indicator: TA1537, Metabolic Activation: None, Method: Preincubation) was “inactive; negative”. For the same compound, the mutagenic call (Test System: Ames Salmonella typhimurium, Strain/Indicator: TA 1537, Metabolic Activation: None, Method: Standard plate) was “inactive; negative”, the mutagenic call (Test System: Ames Salmonella typhimurium, Strain/Indicator: TA1537, Metabolic Activation: Rat, Liver, S-9, Aroclor 1254 (10%), Method: Preincubation) was “inactive; negative” and the mutagenic call (Test System: Ames Salmonella typhimurium, Strain/Indicator: TA1537, Metabolic Activation: Rat, Liver, S-9, Aroclor 1254 (10%), Method: Standard plate) was “inactive; negative”. For the same compound, the mutagenic call (Test System: CHINESE HAMSTER OVARY, Strain/Indicator: CHO-K1-BH4 (HGPRT)/6-THIOGUANINE, Metabolic Activation: NONE) was “inactive; negative”, the mutagenic call (Test System: CHINESE HAMSTER OVARY, Strain/Indicator: CHO-K1-BH4 (HGPRT)/6-THIOGUANINE, Metabolic Activation: S-9) was “inactive; negative” and the mutagenic call (Test System: E. COLI, Strain/Indicator: WP2 (PKM101), Metabolic Activation: NONE, Method: STANDARD PLATE) was “inactive; negative”. For the same compound, the mutagenic call (Test System: E. COLI, Strain/Indicator: WP2 UVRA (PKM101), Metabolic Activation: NONE, Method: STANDARD PLATE) was “inactive; negative”, the mutagenic call (Test System: E.COLI, Strain/Indicator: WP2UVRA, Metabolic Activation: RAT LIVER S-9, PHENOBARBITAL AND BETA-NAPHTHOFLAVONE, Method: PREINCUBATION) was “inactive; negative” and the mutagenic call (Test System: MOUSE LYMPHOMA, Strain/Indicator: L5178Y (TK+/TK-), Metabolic Activation: NONE, Method: SUSPENSION/PLATE) was “active; positive”. For the same compound, the mutagenic call (Test System: MOUSE LYMPHOMA, Strain/Indicator: L5178Y (TK+/TK-), Metabolic Activation: RAT, LIVER, S-9, AROCLOR 1254, Method: SUSPENSION/PLATE) was “active; positive”, the mutagenic call (Test System: Mouse lymphoma, Strain/Indicator: L5178Y (TK+/TK-), Metabolic Activation: None, Method: Suspension/plate) was “inactive; negative” and the mutagenic call (Test System: Mouse lymphoma, Strain/Indicator: L5178Y (TK+/TK-), Metabolic Activation: Rat, Liver, S-9, Aroclor 1254, Method: Suspension/plate) was “inactive; negative”.

— PubChem BioAssay AID1259407 (Chemical Carcinogenesis Research Information System (CCRIS), 2018)
